Laboratory results taken from the supplement of paper PMC8882468.

Each compound was assayed on HCI-016 (organoid from a triple-negative breast cancer xenograft) (assay: CTG-3D luminescence at 96 h relative to day-0 seeding control (ratio to day 0); higher = more growth / less cytotoxicity; PDxO 3D drug screen, 96 h, CTG-3D normalised to day-0 seeding control.). Conditions: 12.5 pM; days in culture: 153.

| SMILES | CTG-3D luminescence at 96 h |
| --- | --- |
| COc1cc2c(Oc3ccc4[nH]c(C)cc4c3F)ncnc2cc1OCCCN1CCCC1 [cediranib] | 3.21 |
| CC(C)n1nc(-c2ccc3oc(N)nc3c2)c2c(N)ncnc21 [sapanisertib] | 2.9 |
| Cc1cc(Nc2ncnc3ccc(NC4=NC(C)(C)CO4)cc23)ccc1Oc1ccn2ncnc2c1 [tucatinib] | 2.94 |
| C[C@H](NC(=O)CCC(F)(F)F)C(=O)N[C@@H]1C(=O)N(CCO)c2ncccc2-c2ccccc21 [crenigacestat] | 2.83 |
| C[C@]12CC[C@@H]3c4ccc(O)cc4C[C@@H](CCCCCCCCC[S+]([O-])CCCC(F)(F)C(F)(F)F)[C@H]3[C@@H]1CC[C@@H]2O (some centres not stated) [fulvestrant] | 2.93 |
| O=C(c1ccc(F)c(F)c1Nc1ccc(I)cc1F)N1CC(O)([C@@H]2CCCCN2)C1 [cobimetinib] | 3.32 |
| O=C(/C=C/c1cccnc1)NCCCCC1CCN(C(=O)c2ccccc2)CC1 [FK866] | 2.99 |
| CS(=O)(=O)c1ccc(C(=O)Nc2ccc(Cl)c(-c3ccccn3)c2)c(Cl)c1 [vismodegib] | 3.24 |
| C=CCn1c(=O)c2cnc(Nc3ccc(N4CCN(C)CC4)cc3)nc2n1-c1cccc(C(C)(C)O)n1 [adavosertib] | 3.14 |

Same assay, conditions: 12.5 pM; days in culture: 172

| SMILES | CTG-3D luminescence at 96 h |
| --- | --- |
| COc1cc2c(Oc3ccc4[nH]c(C)cc4c3F)ncnc2cc1OCCCN1CCCC1 [cediranib] | 2.32 |
| CC(C)n1nc(-c2ccc3oc(N)nc3c2)c2c(N)ncnc21 [sapanisertib] | 1.87 |
| Cc1cc(Nc2ncnc3ccc(NC4=NC(C)(C)CO4)cc23)ccc1Oc1ccn2ncnc2c1 [tucatinib] | 2.3 |
| C[C@H](NC(=O)CCC(F)(F)F)C(=O)N[C@@H]1C(=O)N(CCO)c2ncccc2-c2ccccc21 [crenigacestat] | 2.16 |
| C[C@]12CC[C@@H]3c4ccc(O)cc4C[C@@H](CCCCCCCCC[S+]([O-])CCCC(F)(F)C(F)(F)F)[C@H]3[C@@H]1CC[C@@H]2O (some centres not stated) [fulvestrant] | 2.46 |
| O=C(c1ccc(F)c(F)c1Nc1ccc(I)cc1F)N1CC(O)([C@@H]2CCCCN2)C1 [cobimetinib] | 2.03 |
| O=C(/C=C/c1cccnc1)NCCCCC1CCN(C(=O)c2ccccc2)CC1 [FK866] | 2.21 |
| CS(=O)(=O)c1ccc(C(=O)Nc2ccc(Cl)c(-c3ccccn3)c2)c(Cl)c1 [vismodegib] | 2.24 |
| C=CCn1c(=O)c2cnc(Nc3ccc(N4CCN(C)CC4)cc3)nc2n1-c1cccc(C(C)(C)O)n1 [adavosertib] | 2.14 |

Same assay, conditions: 12.5 pM; days in culture: 190

| SMILES | CTG-3D luminescence at 96 h |
| --- | --- |
| COc1cc2c(Oc3ccc4[nH]c(C)cc4c3F)ncnc2cc1OCCCN1CCCC1 [cediranib] | 1.57 |
| CC(C)n1nc(-c2ccc3oc(N)nc3c2)c2c(N)ncnc21 [sapanisertib] | 1.66 |
| Cc1cc(Nc2ncnc3ccc(NC4=NC(C)(C)CO4)cc23)ccc1Oc1ccn2ncnc2c1 [tucatinib] | 1.7 |
| C[C@H](NC(=O)CCC(F)(F)F)C(=O)N[C@@H]1C(=O)N(CCO)c2ncccc2-c2ccccc21 [crenigacestat] | 1.45 |
| C[C@]12CC[C@@H]3c4ccc(O)cc4C[C@@H](CCCCCCCCC[S+]([O-])CCCC(F)(F)C(F)(F)F)[C@H]3[C@@H]1CC[C@@H]2O (some centres not stated) [fulvestrant] | 1.79 |
| O=C(c1ccc(F)c(F)c1Nc1ccc(I)cc1F)N1CC(O)([C@@H]2CCCCN2)C1 [cobimetinib] | 1.55 |
| O=C(/C=C/c1cccnc1)NCCCCC1CCN(C(=O)c2ccccc2)CC1 [FK866] | 1.78 |
| CS(=O)(=O)c1ccc(C(=O)Nc2ccc(Cl)c(-c3ccccn3)c2)c(Cl)c1 [vismodegib] | 2.13 |
| C=CCn1c(=O)c2cnc(Nc3ccc(N4CCN(C)CC4)cc3)nc2n1-c1cccc(C(C)(C)O)n1 [adavosertib] | 1.64 |

Same assay, conditions: 12.5 pM; days in culture: 199

| SMILES | CTG-3D luminescence at 96 h |
| --- | --- |
| COc1cc2c(Oc3ccc4[nH]c(C)cc4c3F)ncnc2cc1OCCCN1CCCC1 [cediranib] | 1.23 |
| CC(C)n1nc(-c2ccc3oc(N)nc3c2)c2c(N)ncnc21 [sapanisertib] | 1.5 |
| Cc1cc(Nc2ncnc3ccc(NC4=NC(C)(C)CO4)cc23)ccc1Oc1ccn2ncnc2c1 [tucatinib] | 1.77 |
| C[C@H](NC(=O)CCC(F)(F)F)C(=O)N[C@@H]1C(=O)N(CCO)c2ncccc2-c2ccccc21 [crenigacestat] | 1.48 |
| C[C@]12CC[C@@H]3c4ccc(O)cc4C[C@@H](CCCCCCCCC[S+]([O-])CCCC(F)(F)C(F)(F)F)[C@H]3[C@@H]1CC[C@@H]2O (some centres not stated) [fulvestrant] | 1.92 |
| O=C(c1ccc(F)c(F)c1Nc1ccc(I)cc1F)N1CC(O)([C@@H]2CCCCN2)C1 [cobimetinib] | 1.61 |
| O=C(/C=C/c1cccnc1)NCCCCC1CCN(C(=O)c2ccccc2)CC1 [FK866] | 1.45 |
| CS(=O)(=O)c1ccc(C(=O)Nc2ccc(Cl)c(-c3ccccn3)c2)c(Cl)c1 [vismodegib] | 2.04 |
| C=CCn1c(=O)c2cnc(Nc3ccc(N4CCN(C)CC4)cc3)nc2n1-c1cccc(C(C)(C)O)n1 [adavosertib] | 1.57 |

Same assay, conditions: 0.00025 µM; days in culture: 153

| SMILES | CTG-3D luminescence at 96 h |
| --- | --- |
| COc1cc2c(Oc3ccc4[nH]c(C)cc4c3F)ncnc2cc1OCCCN1CCCC1 [cediranib] | 2.24 |
| CC(C)n1nc(-c2ccc3oc(N)nc3c2)c2c(N)ncnc21 [sapanisertib] | 1.03 |
| Cc1cc(Nc2ncnc3ccc(NC4=NC(C)(C)CO4)cc23)ccc1Oc1ccn2ncnc2c1 [tucatinib] | 1.99 |
| C[C@H](NC(=O)CCC(F)(F)F)C(=O)N[C@@H]1C(=O)N(CCO)c2ncccc2-c2ccccc21 [crenigacestat] | 1.83 |
| C[C@]12CC[C@@H]3c4ccc(O)cc4C[C@@H](CCCCCCCCC[S+]([O-])CCCC(F)(F)C(F)(F)F)[C@H]3[C@@H]1CC[C@@H]2O (some centres not stated) [fulvestrant] | 2.2 |
| O=C(c1ccc(F)c(F)c1Nc1ccc(I)cc1F)N1CC(O)([C@@H]2CCCCN2)C1 [cobimetinib] | 1.63 |
| O=C(/C=C/c1cccnc1)NCCCCC1CCN(C(=O)c2ccccc2)CC1 [FK866] | 0.401 |
| CS(=O)(=O)c1ccc(C(=O)Nc2ccc(Cl)c(-c3ccccn3)c2)c(Cl)c1 [vismodegib] | 1.78 |
| C=CCn1c(=O)c2cnc(Nc3ccc(N4CCN(C)CC4)cc3)nc2n1-c1cccc(C(C)(C)O)n1 [adavosertib] | 2.15 |

Same assay, conditions: 0.00025 µM; days in culture: 172

| SMILES | CTG-3D luminescence at 96 h |
| --- | --- |
| COc1cc2c(Oc3ccc4[nH]c(C)cc4c3F)ncnc2cc1OCCCN1CCCC1 [cediranib] | 2.05 |
| CC(C)n1nc(-c2ccc3oc(N)nc3c2)c2c(N)ncnc21 [sapanisertib] | 2.06 |
| Cc1cc(Nc2ncnc3ccc(NC4=NC(C)(C)CO4)cc23)ccc1Oc1ccn2ncnc2c1 [tucatinib] | 2.27 |
| C[C@H](NC(=O)CCC(F)(F)F)C(=O)N[C@@H]1C(=O)N(CCO)c2ncccc2-c2ccccc21 [crenigacestat] | 1.87 |
| C[C@]12CC[C@@H]3c4ccc(O)cc4C[C@@H](CCCCCCCCC[S+]([O-])CCCC(F)(F)C(F)(F)F)[C@H]3[C@@H]1CC[C@@H]2O (some centres not stated) [fulvestrant] | 1.77 |
| O=C(c1ccc(F)c(F)c1Nc1ccc(I)cc1F)N1CC(O)([C@@H]2CCCCN2)C1 [cobimetinib] | 1.92 |
| O=C(/C=C/c1cccnc1)NCCCCC1CCN(C(=O)c2ccccc2)CC1 [FK866] | 1.75 |
| CS(=O)(=O)c1ccc(C(=O)Nc2ccc(Cl)c(-c3ccccn3)c2)c(Cl)c1 [vismodegib] | 1.87 |
| C=CCn1c(=O)c2cnc(Nc3ccc(N4CCN(C)CC4)cc3)nc2n1-c1cccc(C(C)(C)O)n1 [adavosertib] | 1.63 |

Same assay, conditions: 0.00025 µM; days in culture: 190

| SMILES | CTG-3D luminescence at 96 h |
| --- | --- |
| COc1cc2c(Oc3ccc4[nH]c(C)cc4c3F)ncnc2cc1OCCCN1CCCC1 [cediranib] | 1.2 |
| CC(C)n1nc(-c2ccc3oc(N)nc3c2)c2c(N)ncnc21 [sapanisertib] | 1.47 |
| Cc1cc(Nc2ncnc3ccc(NC4=NC(C)(C)CO4)cc23)ccc1Oc1ccn2ncnc2c1 [tucatinib] | 1.19 |
| C[C@H](NC(=O)CCC(F)(F)F)C(=O)N[C@@H]1C(=O)N(CCO)c2ncccc2-c2ccccc21 [crenigacestat] | 1.02 |
| C[C@]12CC[C@@H]3c4ccc(O)cc4C[C@@H](CCCCCCCCC[S+]([O-])CCCC(F)(F)C(F)(F)F)[C@H]3[C@@H]1CC[C@@H]2O (some centres not stated) [fulvestrant] | 1.54 |
| O=C(c1ccc(F)c(F)c1Nc1ccc(I)cc1F)N1CC(O)([C@@H]2CCCCN2)C1 [cobimetinib] | 1.08 |
| O=C(/C=C/c1cccnc1)NCCCCC1CCN(C(=O)c2ccccc2)CC1 [FK866] | 1.44 |
| CS(=O)(=O)c1ccc(C(=O)Nc2ccc(Cl)c(-c3ccccn3)c2)c(Cl)c1 [vismodegib] | 1.28 |
| C=CCn1c(=O)c2cnc(Nc3ccc(N4CCN(C)CC4)cc3)nc2n1-c1cccc(C(C)(C)O)n1 [adavosertib] | 1.28 |

Same assay, conditions: 0.00025 µM; days in culture: 199

| SMILES | CTG-3D luminescence at 96 h |
| --- | --- |
| COc1cc2c(Oc3ccc4[nH]c(C)cc4c3F)ncnc2cc1OCCCN1CCCC1 [cediranib] | 1.38 |
| CC(C)n1nc(-c2ccc3oc(N)nc3c2)c2c(N)ncnc21 [sapanisertib] | 1.27 |
| Cc1cc(Nc2ncnc3ccc(NC4=NC(C)(C)CO4)cc23)ccc1Oc1ccn2ncnc2c1 [tucatinib] | 1.74 |
| C[C@H](NC(=O)CCC(F)(F)F)C(=O)N[C@@H]1C(=O)N(CCO)c2ncccc2-c2ccccc21 [crenigacestat] | 1.3 |
| C[C@]12CC[C@@H]3c4ccc(O)cc4C[C@@H](CCCCCCCCC[S+]([O-])CCCC(F)(F)C(F)(F)F)[C@H]3[C@@H]1CC[C@@H]2O (some centres not stated) [fulvestrant] | 2.05 |
| O=C(c1ccc(F)c(F)c1Nc1ccc(I)cc1F)N1CC(O)([C@@H]2CCCCN2)C1 [cobimetinib] | 1.48 |
| O=C(/C=C/c1cccnc1)NCCCCC1CCN(C(=O)c2ccccc2)CC1 [FK866] | 1.44 |
| CS(=O)(=O)c1ccc(C(=O)Nc2ccc(Cl)c(-c3ccccn3)c2)c(Cl)c1 [vismodegib] | 1.97 |
| C=CCn1c(=O)c2cnc(Nc3ccc(N4CCN(C)CC4)cc3)nc2n1-c1cccc(C(C)(C)O)n1 [adavosertib] | 1.35 |
